Measured values taken from patent US20240208997A1, “CYCLIC BENZIMIDAZOLE DERIVATIVES AS CGAS INHIBITORS” (Boehringer Ingelheim International GmbH, priority 2022, published 2024).

What was measured:
[1] = test system: IFN induction in virus-stimulated THP1 cells; assay: Human cGAS cell assay, virus-stimulated THP1-Dual cells (THP1(vir) IC50); format: cell-based; conditions: THP-1, 18 h, Table 1, baculovirus-stimulated THP1-Dual cells, Lucia luciferase, 18 h, read-out: THP(vir) IC50
Text: (§1) 6.2 Method: Human cGAS Cell Assay and cGAMP Stimulated Counter Cell Assay (THP1(vir) IC50 and THP1(cGAMP) IC50)
THP1-Dual™ cells (InvivoGen #thpd-nfis) expressing IRF dependent Lucia luciferase reporter were used as basis for both assays. For the detection of cellular cGAS activity cells were stimulated by a baculovirus (pFastbac-1, Invitrogen, no coding insert) infection that delivers the cGAS enzyme stimulating double-stranded DNA (measurement of THP1(vir) IC50).
(§2) Pathway activity was monitored by measuring the Lucia luciferase activity induced by either DNA stimulated cGAS enzyme activity (measurement of THP1(vir) IC50) or by cGAMP directly (measurement of THP1(cGAMP) IC50, counter assay).
(§3) Compounds were delivered in 10 mM DMSO solution, serially diluted and transferred to the 384 well assay plate (Greiner #781201) using an Echo acoustic dispenser. Typically, 8 concentrations were used with the highest concentration at 10 μM in the final assay volume followed by ^˜1:5 dilution steps. DMSO concentration was set to 1% in the final assay volume. The 384 well assay plate contained […] (column 1-22), and DMSO in column 23 and 24.
(§4) Cells, cultivated according to manufacturer conditions, were harvested by centrifugation at 300 g/10 min and were then resuspended and diluted to 1.66E5 cells/ml in fresh cell culture medium (RPMI 1640 (Gibco #A10491-01), 10% FCS (Gibco #10500), 1× GlutaMax (Gibco #35050-061), 1× Pen/Strep solution (Gibco #15140-122), 100 μg/ml Normocin (InvivoGen #ant-nr), 100 μg/ml Zeocin (InvivoGen #ant-zn), 10 μg/ml Blasticidin S (Life Technologies #A11139-03)). The baculovirus solution was then added 1:200 (have varied according to virus batch) to the cells (measurement of THP1(vir) IC50).
(§5) 30 μL of the cell/virus-mix were added to each well of the compound plate from column 1-23 via MultiDrop Combi dispenser (5000 cells/well). In column 24, 30 μl/5000 cells/well without virus were added as a low control.
(§6) The plates were then incubated for 18 h at 37° C. in a humidified incubator.
(§7) Following that, 15 μL of QuantiLuc detection reagent (InvivoGen #rep-qlcg5) were added to each well using a MultiDrop Combi. Measurement was done immediately after the addition using an EnVision reader (US-luminescence read-mode).
(§8) Data Evaluation and Calculation:
(§9) For data evaluation and calculation, the measurement of the low control was set as 0% control and the measurement of the high control was set as 100% control. The IC50 values were calculated using the standard 4 parameter logistic regression formula. Calculation: [y=(a−d)/(1+(x/c)^b)+d], a=low value, d=high value; x=conc M; c=IC50 M; b=slope

[2] = test system: IFN induction in cGAMP-stimulated THP1 cells; assay: cGAMP stimulated counter cell assay in THP1-Dual cells (THP1(cGAMP) IC50); format: cell-based, human; conditions: Table 1; for IC50: Homo sapiens, THP-1, counter assay, 10 μM cGAMP stimulation, read-out: THP(cGAMP) IC50; for Ratio THP(cGAMP) IC50/THP(vir) IC50: selectivity for cGAS-inhibition
Text: as §1
For the counter assay, cells were stimulated by cGAMP (SigmaAldrich #SML1232) to activate the identical pathway independent and directly downstream of cGAS (measurement of THP1(cGAMP) IC50).
as §2, §3, §4, §5, §6, §7, §8, §9

[3] = test system: IFN induction in dsDNA-stimulated human whole blood; assay: Human whole blood assay (hWB IC50), dsDNA stimulated, IFNα2α production; format: cell-based; conditions: Table 1
Procedure: 6.3 Method: Human Whole Blood Assay (Human WB IC50)
For the detection of cellular cGAS activity human whole blood was stimulated by transfection with double stranded DNA. Pathway activity was monitored by measuring the IFNα2α production.
Compounds were delivered as 10 mM DMSO solution and serially diluted and transferred to the 96-well cell culture plate (Corning #3595), prefilled with 20 μl OptiMEM (Gibco, #11058-021) in each well, using an Echo acoustic dispenser. Typically, 8 concentrations were used with the highest concentration at 10 μM in the final assay volume followed by ^˜1:5 dilution steps. DMSO concentration was set to 0.1% in the final assay volume. The 96-well assay plate contained 10 test compounds, and DMSO in control wells.
Collection of human whole blood from 3 or more healthy donors (male or female, no medication for 7 days except contraceptive and thyroxine) as Na-Citrate blood (e.g. 3.8% in Monovettes from Sarstedt) was conducted in parallel. Whole blood was kept at room temperature for a maximum of 3 hours after collection until use in the assay. 160 μl of the whole blood samples was transferred to each well of the 96-well assay plates filled with compound/OptiMEM. All assay plates were prepared as duplicates with blood from different donors. Blood plates were kept at room temperature for 60 minutes and continuous shaking with 450 rpm, covered with the lid, but not sealed.
20 μl OptiMEM and 9.6:1 Fugene was added to all low control wells.
After covering assay plates with aera seals and the lid, blood plates were kept at room temperature for 30 minutes and continuous shaking with 450 rpm, followed by an overnight incubation of 22 h at 37° C. in the incubator, without shaking.
For the detection of IFNα-2α in human plasma, the biotinylated capture antibody (Antibody set IFNA2, Meso Scale Diagnostics #B21VH-3, including coating and capture antibody) was diluted 1:17.5 in Diluent 100 (Meso Scale Diagnostics #R50AA-4), according to the manufacturer's directions. U-Plex MSD GOLD 96-well Small Spot Strepavidin SECTOR Plates (Meso Scale Diagnostics #L45SA-5) were coated with 25 μl diluted capture antibody. Coated plates were incubated for 60 min at room temperature under continuous shaking at 700 rpm. MSD IFNα-2α plates were washed three times with 150 μl wash buffer (1× HBSS, 0.05% Tween).
After blocking the plates with 100 μl block solution/well (1× HBSS with 0.2% Tween, 2% BSA) for 60 min at room temperature and continuous shaking at 700 rpm, plates were emptied as dry as possible by dumping just before continuing with the human plasma.
Whole Blood assay plates were centrifuged at 1600 rpm for 10 minutes. 25 μl of supernatant was transferred with a pipetting robot from each whole blood plate to the corresponding IFNα-2α plate. Plates were sealed with microplate seals and kept at room temperature again under continuous shaking at 700 rpm for two hours.
Next MSD IFNα-2α plates were washed three times with 150 μl wash buffer (1× HBSS, 0.05% Tween), before adding 25 μl MSD SULFO-TAG IFNα-2α Antibody solution (1:100 diluted in Diluent 3 (Meso Scale Diagnostics #R50AP-2) to each well of the plates.
Afterwards plates were sealed with microplate seals and kept at room temperature again under continuous shaking at 700 rpm for two hours. Finally, MSD IFNα-2α plates were washed three times with 150 μl wash buffer (1× HBSS, 0.05% Tween). 150 μl 2× Read buffer was added to each well and plates were immediately measured with the MSD Sector S600 Reader using the vendor barcode.
as §8
For data evaluation and calculation, % control calculation of each well was based on the mean of high (DNA stimulated control) and mean of low (unstimulated control) controls by using the following formula:
[counts(sample)−counts(low))/(counts(high)−counts(low))]*100
The IC50-values were calculated using the standard 4 parameter logistic regression formula. […]

SMILES | IC50 [1] [nM] | IC50 [2] [nM] | Ratio THP(cGAMP) IC50/THP(vir) IC50 [2] | IC50 [3] [nM]
C[C@H]1CCCCC(=O)N2CCC(CC2)n2c(nc3ccccc32)O[C@H]2C[C@@H](C(=O)O)N(C2)c2nc1nc1c2oc2ccccc21 [Example 1.25] | 8 | > 10000 | >1251 | 41
C[C@H]1CN2CC[C@@H]1n1c(nc3ccccc31)O[C@H]1C[C@@H](C(=O)O)N(C1)c1nc(nc3c1oc1ccccc13)CCOCCOC2=O (mixture of isomers) [Example 12.01] | 240 | > 10000 | >42 | 225
C[C@H]1CN2CC[C@@H]1n1c(nc3cc(Cl)ccc31)O[C@H]1C[C@@H](C(=O)O)N(C1)c1nc(nc3c1oc1ccccc13)COCCOCC2=O [Example 1.11] | 3.6 | ≥ 10000 | >2907 | 3
C[C@@H]1CC(=O)N2CCC(CC2)n2c(nc3ccccc32)O[C@H]2C[C@@H](C(=O)O)N(C2)c2nc(nc3c2oc2ccccc23)CCCO1 [Example 7.01] | 150 | 3500 | 23 | 101
C[C@H]1CN2CC[C@@H]1n1c(nc3ccccc31)O[C@H]1C[C@@H](C(=O)O)N(C1)c1nc(nc3c1oc1cc(Cl)ccc13)CCOCCCC2=O [Example 1.07] | 6.5 | > 10000 | >1541 | 13
C[C@H]1CN2CC[C@@H]1n1c(nc3ccccc31)O[C@H]1C[C@@H](C(=O)O)N(C1)c1nc(nc3c1oc1cc(Cl)ccc13)C(F)(F)CCCCCC2=O [Example 1.16] | 9.7 | 11000 | 1134 | 10
C[C@H]1CN2CC[C@@H]1n1c(nc3cc(F)ccc31)O[C@H]1C[C@@H](C(=O)O)N(C1)c1nc(nc3c1oc1ccccc13)C(F)(F)CCCCC(F)(F)C2=O [Example 1.18] | 37 | 10000 | 270 | 10
C[C@H]1CN2CC[C@@H]1n1c(nc3ccccc31)O[C@H]1C[C@@H](C(=O)O)N(C1)c1nc(nc3c1oc1cc(Cl)ccc13)C(F)(F)CCCOCC2=O [Example 1.22] | 1.5 | > 10000 | >6579 | 4
C[C@H]1CN2CC[C@@H]1n1c(nc3ccccc31)O[C@H]1C[C@@H](C(=O)O)N(C1)c1nc(nc3c1oc1ccccc13)CCOCCCC2=O [Example 1.05] | 2.9 | > 10000 | >3448 | 5
C[C@H]1CN2CC[C@@H]1n1c(nc3cc(Cl)ccc31)O[C@H]1C[C@@H](C(=O)O)N(C1)c1nc(nc3c1oc1ccccc13)CCOCCCC2=O [Example 1.02] | 2.8 | > 10000 | >3557 | 5
C[C@H]1CN2CC[C@@H]1n1c(nc3ccccc31)O[C@H]1C[C@@H](C(=O)O)N(C1)c1nc(nc3c1oc1ccccc13)C(F)(F)COCCCC2=O [Example 4.01] | 0.69 | > 10000 | >14442 | 1
Cc1cccc2c1nc1n2[C@H]2CCN(C[C@@H]2C)C(=O)CCCCCC(F)(F)c2nc(c3oc4ccccc4c3n2)N2C[C@H](C[C@H]2C(=O)O)O1 [Example 1.28] | 15 | 4000 | 267 | 28
C[C@@H]1CN2CC[C@H]1n1c(nc3ccccc31)O[C@H]1C[C@@H](C(=O)O)N(C1)c1nc(nc3c1oc1ccccc13)CCCCCOC2=O [Example 10.01] | 180 | 8200 | 45 | 439
C[C@H]1CN2CC[C@@H]1n1c(nc3cc(Cl)ccc31)O[C@H]1C[C@@H](C(=O)O)N(C1)c1nc(nc3c1oc1ccccc13)C(F)(F)CCCCCC2=O [Example 1.12] | 2.2 | 3600 | 1620 | 5
C[C@H]1CN2CC[C@@H]1n1c(nc3ccccc31)O[C@H]1C[C@@H](C(=O)O)N(C1)c1nc(nc3c1oc1cc(F)ccc13)C(F)(F)CCCCCC2=O [Example 1.14] | 1.5 | 18000 | 11920 | 4
C[C@H]1CN2CC[C@@H]1n1c(nc3ccccc31)O[C@H]1C[C@@H](C(=O)O)N(C1)c1nc(nc3c1oc1ccccc13)CCCCCN(C)C2=O [Example 13.01] | 500 | 7300 | 15 | 186
O=C(O)[C@@H]1C[C@H]2CN1c1nc(nc3c1oc1ccccc13)COCCCCCC(=O)N1CCC(CC1)n1c(nc3cccc(F)c31)O2 [Example 5.01] | 38 | > 10000 | >260 | 33
C[C@H]1CN2CC[C@@H]1n1c(nc3cc(Cl)ccc31)O[C@H]1C[C@@H](C(=O)O)N(C1)c1nc(nc3c1oc1cc(Cl)ccc13)CCOCCCC2=O [Example 1.08] | 2.4 | 9500 | 3928 | 17
C[C@H]1CN2CC[C@@H]1n1c(nc3cc(F)ccc31)O[C@H]1C[C@@H](C(=O)O)N(C1)c1nc(nc3c1oc1cc(F)ccc13)C(F)(F)CCCCCC2=O [Example 1.15] | 7.1 | > 10000 | >1408 | 3
